Assay [1] addresses T1, rat MCH-1 (Rattus norvegicus, UniProt P97639). Put plainly: Radioligand binding assay at cloned rat MCH1 receptor ([3H] Compound A). Set-up: host or cells: Peak rapid 293 (Peakr293) cells, transient calcium phosphate transfection, membranes. Conditions: cloned rat MCH1 receptor, membranes from Peakr293 cells, 0.08 nM [3H] Compound A; read-out: Ki (nM) rMCH1.
The target of assay [2] is T2, human Alpha-1a Adrenergic receptor (Homo sapiens, UniProt P35348).
T2 construct: expressed in transfected cells
T2 sequence (P35348 1-466): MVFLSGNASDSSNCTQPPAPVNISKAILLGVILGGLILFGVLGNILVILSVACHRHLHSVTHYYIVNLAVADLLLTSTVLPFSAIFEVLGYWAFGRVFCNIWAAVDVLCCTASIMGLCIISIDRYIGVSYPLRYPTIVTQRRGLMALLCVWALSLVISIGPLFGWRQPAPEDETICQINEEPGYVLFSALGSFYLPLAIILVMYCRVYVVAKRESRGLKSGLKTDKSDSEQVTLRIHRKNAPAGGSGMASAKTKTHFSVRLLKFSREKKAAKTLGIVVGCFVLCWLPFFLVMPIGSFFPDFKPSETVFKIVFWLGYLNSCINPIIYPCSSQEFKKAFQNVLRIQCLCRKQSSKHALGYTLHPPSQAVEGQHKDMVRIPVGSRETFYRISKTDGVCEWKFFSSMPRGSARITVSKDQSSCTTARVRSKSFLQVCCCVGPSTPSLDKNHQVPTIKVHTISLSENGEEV
As to the kind of experiment: Binding affinity at cloned human Alpha-1a Adrenergic receptor. Conditions: read-out: hALPHA-1a Ki.

Assay [3] has as its target T3, human Histamine H1 receptor (Homo sapiens, UniProt P35367).
T3 construct: expressed in transfected cells
As to the kind of experiment: Binding affinity at cloned human Histamine H1 receptor. Conditions: read-out: hH1 Ki.

The target in assay [4] is human Dopamine D2 receptor (Homo sapiens, UniProt P14416). Put plainly: Binding affinity at cloned human Dopamine D2 receptor. The note with it: read-out: hD2 Ki.
In assay [5] the test system is food intake induced by the intracerebroventricular application of MCH. The note with it: in vivo; cited from earlier work.
The target of assay [6] is T1, rat MCH-1. The note with it: cited from earlier work.
A further assay addresses human MCH-1 (Homo sapiens, UniProt Q99705). Conditions: cited from earlier work.

These results are taken from patent publication US6727264B1 (Synaptic Pharmaceutical Corporation, priority 2001, dated 2004).

T1 sequence (P97639 whole entry): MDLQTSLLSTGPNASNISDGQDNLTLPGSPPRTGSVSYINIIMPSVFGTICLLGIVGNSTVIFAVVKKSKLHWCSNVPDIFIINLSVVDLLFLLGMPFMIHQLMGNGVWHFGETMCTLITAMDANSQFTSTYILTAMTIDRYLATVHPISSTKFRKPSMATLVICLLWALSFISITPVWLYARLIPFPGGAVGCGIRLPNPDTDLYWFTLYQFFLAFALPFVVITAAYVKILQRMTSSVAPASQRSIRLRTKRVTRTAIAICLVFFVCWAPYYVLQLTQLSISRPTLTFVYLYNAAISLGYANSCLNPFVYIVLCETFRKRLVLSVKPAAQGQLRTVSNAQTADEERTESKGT
T3 sequence (P35367 whole entry): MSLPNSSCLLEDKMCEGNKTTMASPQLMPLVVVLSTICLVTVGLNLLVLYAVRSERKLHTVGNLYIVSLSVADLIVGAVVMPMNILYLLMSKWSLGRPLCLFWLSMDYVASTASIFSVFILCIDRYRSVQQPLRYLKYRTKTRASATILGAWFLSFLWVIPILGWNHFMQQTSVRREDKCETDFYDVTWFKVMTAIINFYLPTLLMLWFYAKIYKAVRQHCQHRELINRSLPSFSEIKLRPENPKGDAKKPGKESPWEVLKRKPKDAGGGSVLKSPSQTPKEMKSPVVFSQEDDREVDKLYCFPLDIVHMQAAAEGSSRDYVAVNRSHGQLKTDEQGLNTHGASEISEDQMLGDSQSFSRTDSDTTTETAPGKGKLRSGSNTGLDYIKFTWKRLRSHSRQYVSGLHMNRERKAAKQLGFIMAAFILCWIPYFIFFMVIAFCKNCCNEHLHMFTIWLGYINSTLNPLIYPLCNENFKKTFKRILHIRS
human Dopamine D2 receptor, sequence (P14416 whole entry): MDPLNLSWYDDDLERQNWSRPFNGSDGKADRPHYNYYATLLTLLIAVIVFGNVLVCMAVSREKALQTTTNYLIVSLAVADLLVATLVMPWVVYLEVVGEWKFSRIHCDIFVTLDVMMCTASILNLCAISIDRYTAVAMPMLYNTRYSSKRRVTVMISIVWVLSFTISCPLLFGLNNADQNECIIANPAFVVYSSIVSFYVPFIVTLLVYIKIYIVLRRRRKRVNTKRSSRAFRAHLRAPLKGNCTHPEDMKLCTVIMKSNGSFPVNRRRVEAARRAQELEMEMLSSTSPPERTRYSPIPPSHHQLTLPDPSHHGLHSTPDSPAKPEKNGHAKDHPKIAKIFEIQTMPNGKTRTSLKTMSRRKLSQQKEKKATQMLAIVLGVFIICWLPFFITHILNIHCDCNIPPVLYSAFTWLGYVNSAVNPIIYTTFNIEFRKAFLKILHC
human MCH-1, sequence (Q99705 whole entry): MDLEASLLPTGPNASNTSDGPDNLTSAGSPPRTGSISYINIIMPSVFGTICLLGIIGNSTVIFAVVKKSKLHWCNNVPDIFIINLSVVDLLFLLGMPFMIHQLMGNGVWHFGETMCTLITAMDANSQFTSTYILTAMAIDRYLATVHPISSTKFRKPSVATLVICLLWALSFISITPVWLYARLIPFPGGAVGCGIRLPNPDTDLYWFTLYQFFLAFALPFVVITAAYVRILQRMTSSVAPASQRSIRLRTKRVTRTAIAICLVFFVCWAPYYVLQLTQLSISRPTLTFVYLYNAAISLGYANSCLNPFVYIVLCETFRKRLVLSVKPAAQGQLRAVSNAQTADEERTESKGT

Regarding `CC(C)C(=O)Nc1cccc(C2CCN(CCC(OC(=O)c3cccc4ccccc34)c3ccccc3)CC2)c1` (stereo in doubt) [Example 69, (1S)-3-{4-[3-(ISOBUTYRYLAMINO)PHENYL]-1-PIPERIDINYL}-1-PHENYLPROPYL 1-NAPHTHOATE], the Ki is 32.5 nM at rat MCH-1 [1], 232 nM in assay [2], more than 50000 nM in assay [3] and 46.6 nM in assay [4].

Turning to `CC(=O)Nc1cccc(C2CCN(CCCNC(=O)N3C(=O)O[C@H](C)[C@@H]3c3ccc(F)c(F)c3)CC2)c1` [Example 75], the inhibition constant (Ki) on rat MCH-1 [1] amounted to 11.8 nM; in assay [2], 2470 nM; in assay [3], 2840 nM; in assay [4] it was 19000 nM.

Regarding `CN(C)CC1CCc2cc(NC(=O)c3ccc(-c4ccc(F)cc4)cc3)ccc2C1` (centres unmarked) [Example T-226296, T-226296], the “food intake induced by intracerebroventricular MCH” value in assay [5] is on record as “inhibit food intake”. Further, the “affinity for the MCH-1 receptor” value on rat MCH-1 [6] and on human MCH-1 was 5 to 9 nM each time.

The Ki is a measure of affinity in units of concentration, obtained from inhibition or displacement.
